We go through 1 compound from patent publication US7115665B1, “Inhibitors of endo-exonuclease activity for treating cancer” (Onocozyme Pharma, Inc., priority 2000, dated 2006).

Assay [1] concerns human endo-exonuclease. Kind of assay: Endo-exonuclease nuclease activity inhibition assay. The format is biochemical. As for the experimental part: The cultured cells were detached with trypsin-EDTA and the cell suspensions were centrifuged at 4° C. with a force of 700 g for 10 minutes. The cell pellets were washed twice with cold phosphate buffered saline (PBS). The cells were then resuspended and sonicated in 20 mM Tris-HCl, pH 7.5, containing 5 mM EDTA and 1 mM PMSF (buffer A). The resulting cell lysis suspensions were centrifuged at 4° C. at 10,000 g for 15 min. […] After washing extensively with buffer A, (i.e. until the A280 of the eluates were zero), the column was then eluted with buffer A containing 3.5 M MgCl2 to elute the endo-exonuclease. The eluted endo-exonuclease was dialyzed extensively against buffer A with at least two changes of buffer and one change of distilled water. The endo-exonuclease was then concentrated by lyophilization.
One unit of activity was defined as the amount of deoxyribonuclease that renders 1 μg of DNA acid-soluble in 30 min at 37° C. For the inhibition assay with the drugs, the drugs were added to the endo-exonuclease prior to the start of the nuclease reaction.

The test system of assay [2] is Lewis lung carcinoma (M47) primary tumour. On the procedure:
Lewis Lung Carcinoma Cell Line and Cell Culture: The Lewis lung carcinoma clone, M47, is a metastatic model. […] For tumour induction, cells were washed three times with phosphate buffer solution. They were then re-suspended at a dilution of 1×10^6 cells/0.1 ml. Only cells where viability was >95% were used for in vivo studies.
The mouse strain used in this study was C57BL/10. After one-week of acclimatization, cells were transplanted into the mice subcutaneously, as a suspension of tumour cells. All animals were inoculated at the same site.
To measure the effect of drugs on the primary tumour, drug solutions were administered by intraperitoneal (ip) injection every two days. Animals were subjected, on a daily basis, to general examination. Tumour growth was monitored over time. To determine the effect of drugs on tumour metastasis, the tumours were allowed to reach a size of 0.5–1.0 cm^3. Mice were randomized into various groups and the drugs were then given by ip. At the end of each experiment, animals were sacrificed and autopsied. Tumours, organs or both were removed under sterile conditions. Tumours were weighed. Organs were examined for gross pathological changes and then fixed in formalin. Lungs were fixed in Bouin's fixative and lung surface metastases were counted using a stereomicroscope.
The Lewis lung carcinoma clone, M47, with a high metastatic potential to the lung was used. […] The cell used was confirmed to be free of mycoplasma. Cells were maintained in RPMI-1640 medium supplemented with 10% fetal bovine serum and 1% penicillin-streptomycin, under 5% CO2. Cells were then propagated and stocks of the same passages were established and stored in liquid nitrogen. Oncozyme studies were done with the same stock of cells and same passage number.
For tumour induction, cells were grown to 70% confluence in complete medium and then collected using trypsin-EDTA solution [0.05% trypsin 0.53 mM EDTA-4Na in HBSS without Ca++. Mg++, and NaHCO3; Celigro No. 25–052-Li]. Cells were then centrifuged and washed three times with phosphate buffer solution [D-PBS, Ca++ and Mg++free; Cellgro No. 21–031-LV], and resuspended at a dilution of 0.1 to 1×10^6 cells/0.1 ml. Viability was examined by trypan blue staining and only cells in which the viability was >95% were used for in vivo studies.
The mouse strain used in this study is C57BL/10 from Charles River Inc. Animals were housed 5 per cage and were fed a diet of animal chow and water ad libitum. After one week acclimatization, LLC cells were transplanted subcutaneously, as a suspension of tumour cells [2−5×10^5 viable cells per 0.1 ml], in the axillary region of the right flank. All animals were inoculated at the same site. Animals were subjected, on a daily basis, to general examination. Tumour growth was monitored every second or third day using calipers. Parameters measured were: tumour measured along the longest axis (length) and the perpendicular shortest axis (width) and the relative tumour volume (in cm^3) was calculated by the formula: [length (cm)×(width cm)^2] (approximately 10–15 days), mice were randomized into one of the following groups:
The conditions for this group were identical to the group used for the experiments on metastases with the exception that the primary tumour was not removed, and the animals were maintained until the tumours reached a large size that justified animal sacrifice, or the animals manifested a discomfort that justified their sacrifice (reduced mobility, severe respiratory symptoms, etc.).
Control animals were given the same volume of saline solution [0.9% sodium chloride]. The dose of each drug was normalized to body weight per animal.
The pentamidine and cisplatinum were injected by intraperitoneal injections. Adriamycin was injected intravenously.

The subject of assay [3] is cancer cells. In words: Efficiency of drug combination at killing cancer cells. The settings on record: FIG. 4; efficiency from LC50 ratios. The assay is classed as cell-based.

Regarding `N=C(N)c1ccc(OCCCCCOc2ccc(C(=N)N)cc2)cc1` [Pentamidine, pentamidine], the results for the “Percent of Inhibition of endo-exonuclease activity” value in assay [1] (25 μM), in assay [1] (50 μM) and in assay [1] (100 μM) were 37%, 50% and 100%, respectively. Also, the “Antitumour activity compared with cisplatin at 3–4 mg/Kg/ip” value in assay [2] (FIG. 13) is listed as “as active as cisplatin”. Also, the “Primary tumour effect, 50 mg/Kg pentamidine combined with adriamycin” value in assay [2] (FIG. 18) is recorded as “some beneficial effect”. Moreover, the “Tumour response, combined with 3 mg/Kg cisplatin” value in assay [2] (FIGS. 14a and 14b) was “some animals showed a complete regression of the tumours”. Besides, in assay [2] (daily injection, FIG. 7), the “Inhibition of cancer growth compared with cisplatinum” value is “as effective in inhibiting the cancer growth as cisplatinum”. Further, the “Most active dose on growth of LLC primary tumour” value in assay [2] (ip, p<0,01, FIGS. 10 to 15) is 50 mg/kg. Also, the “Efficiency at killing cancer cells of cisplatin combined with pentamidine versus cisplatin alone” value in assay [3] is “up to 16,000 times”.
